From patent EP0454444A1, “Glutarimide derivatives and herbicides” (NISSAN CHEMICAL INDUSTRIES LTD., priority 1990, dated 1991)

What was measured:
Test in all cases: Herbicidal effect test by soil treatment
Assay type in all cases: in vivo
[1] = tested on: annual sedge (Cyperus microiria); details: three weeks after spraying
Text: (§1) In a plastic box of 15 cm length, 22 cm width and 6 cm depth, there was placed a sterilized dilvial soil, and seeds of barnyardgrass (Echinochloa crusgalli), large crabgrass (Digitaria adscendens), annual sedge (Cyperus microiria), black nightshade (Solanum nigrum L.), hairly galinosoga (Galinsoga ciliat), rorippa ssp. (Rorippa atrovirens), rice (Oryza sativa), corn (Zea mays), wheat (Triticum aestivum), soybean (Glysine max) and cotton (Gossypium herbaceum) were sown mixedly. After covering soil to about 1 cm over the seeds, herbicides were sprayed evenly on the soil surface to predetermined proportions of the active ingredient In spraying, the wettable powder, emulsifiable concentrate, dry flowable or flowable in the above formulation examples were diluted with water and sprayed over the entire surface by means of a small sprayer. Three weeks after spraying, the herbicidal effect on crop plants including rice, corn, wheat, soybean, cotton and various kinds of weeds were examined according to the judgement criteria shown below. Judgement criteria
(§2) The above growth control rates are determined by measuring the top fresh weights of the treated plants and those of the non-treated plants, and culculated from the following formula: [formula]

[2] = tested on: barnyardgrass (Echinochloa crusgalli); details: three weeks after spraying
Text: as §1, §2

[3] = tested on: black nightshade (Solanum nigrum L.); details: three weeks after spraying
Text: as §1, §2

[4] = tested on: corn (Zea mays); details: crop plant, three weeks after spraying
Text: as §1, §2

[5] = tested on: cotton (Gossypium herbaceum); details: crop plant, three weeks after spraying
Text: as §1, §2

[6] = tested on: hairly galinosoga (Galinsoga ciliat); details: three weeks after spraying
Text: as §1, §2

[7] = tested on: large crabgrass (Digitaria adscendens); details: three weeks after spraying
Text: as §1, §2

[8] = tested on: rice (Oryza sativa); details: crop plant, three weeks after spraying
Text: as §1, §2

[9] = tested on: rorippa ssp. (Rorippa atrovirens); details: three weeks after spraying
Text: as §1, §2

[10] = tested on: soybean (Glysine max); details: crop plant, three weeks after spraying
Text: as §1, §2

[11] = tested on: wheat (Triticum aestivum); details: crop plant, three weeks after spraying
Text: as §1, §2

Row | Structure (SMILES) | herbicidal effect, K (Cyperus microiria) ([1]; application amount 0.4 g/a) | herbicidal effect, K (Cyperus microiria) ([1]; application amount 0.8 g/a) | herbicidal effect, K (Cyperus microiria) ([1]; application amount 1.6 g/a) | herbicidal effect, H (Solanum nigrum L.) ([3]; application amount 0.4 g/a) | herbicidal effect, H (Solanum nigrum L.) ([3]; application amount 0.8 g/a) | herbicidal effect, H (Solanum nigrum L.) ([3]; application amount 1.6 g/a) | herbicidal effect, T (Zea mays) ([4]; application amount 0.4 g/a) | herbicidal effect, T (Zea mays) ([4]; application amount 0.8 g/a) | herbicidal effect, T (Zea mays) ([4]; application amount 1.6 g/a) | herbicidal effect, C (Gossypium herbaceum) ([5]; application amount 0.4 g/a) | herbicidal effect, C (Gossypium herbaceum) ([5]; application amount 0.8 g/a) | herbicidal effect, C (Gossypium herbaceum) ([5]; application amount 1.6 g/a) | herbicidal effect, D (Galinsoga ciliat) ([6]; application amount 0.4 g/a) | herbicidal effect, D (Galinsoga ciliat) ([6]; application amount 0.8 g/a) | herbicidal effect, D (Galinsoga ciliat) ([6]; application amount 1.6 g/a) | herbicidal effect, M (Digitaria adscendens) ([7]; application amount 0.4 g/a) | herbicidal effect, R (Oryza sativa) ([8]; application amount 1.6 g/a) | herbicidal effect, I (Rorippa indica) ([9]; application amount 1.6 g/a) | herbicidal effect, S (Glysine max) ([10]; application amount 1.6 g/a) | herbicidal effect, W (Triticum vulgare) ([11]; application amount 1.6 g/a) | also measured
1 | CC(C)OC(=O)c1cc(N2C(=O)CC(C(F)(F)F)C(C)C2=O)c(F)cc1Cl (stereo not drawn) [1-3] | 5 (Growth control,rates of more than 90% (almost completely withered)) | 5 (Growth control,rates of more than 90% (almost completely withered)) | 5 (Growth control,rates of more than 90% (almost completely withered)) | 5 (Growth control,rates of more than 90% (almost completely withered)) | 5 (Growth control,rates of more than 90% (almost completely withered)) | 5 (Growth control,rates of more than 90% (almost completely withered)) | 2 (Growth control rates of 20 to 40%) | 3 (Growth control rates of 40 to 70%) | 4 (Growth control rates of 70 to 90%) | 0 (Growth control rates of less than 5% (substantially no effect)) | 1 (Growth control rates of 5 to 20%) | 3 (Growth control rates of 40 to 70%) | 5 (Growth control,rates of more than 90% (almost completely withered)) | 5 (Growth control,rates of more than 90% (almost completely withered)) | 5 (Growth control,rates of more than 90% (almost completely withered)) | 5 (Growth control,rates of more than 90% (almost completely withered)) | 5 (Growth control,rates of more than 90% (almost completely withered)) | 5 (Growth control,rates of more than 90% (almost completely withered)) | 2 (Growth control rates of 20 to 40%) | 5 (Growth control,rates of more than 90% (almost completely withered)) | herbicidal effect, N (Echinochloa crusgalli) ([2]; application amount 0.4 g/a): 5 (Growth control,rates of more than 90% (almost completely withered)); herbicidal effect, N (Echinochloa crusgalli) ([2]; application amount 0.8 g/a): 5 (Growth control,rates of more than 90% (almost completely withered)); herbicidal effect, N (Echinochloa crusgalli) ([2]; application amount 1.6 g/a): 5 (Growth control,rates of more than 90% (almost completely withered)); herbicidal effect, M (Digitaria adscendens) ([7]; application amount 0.8 g/a): 5 (Growth control,rates of more than 90% (almost completely withered)); herbicidal effect, M (Digitaria adscendens) ([7]; application amount 1.6 g/a): 5 (Growth control,rates of more than 90% (almost completely withered)); herbicidal effect, R (Oryza sativa) ([8]; application amount 0.4 g/a): 4 (Growth control rates of 70 to 90%); herbicidal effect, R (Oryza sativa) ([8]; application amount 0.8 g/a): 5 (Growth control,rates of more than 90% (almost completely withered)); herbicidal effect, I (Rorippa indica) ([9]; application amount 0.4 g/a): 5 (Growth control,rates of more than 90% (almost completely withered)); herbicidal effect, I (Rorippa indica) ([9]; application amount 0.8 g/a): 5 (Growth control,rates of more than 90% (almost completely withered)); herbicidal effect, S (Glysine max) ([10]; application amount 0.4 g/a): 0 (Growth control rates of less than 5% (substantially no effect)); herbicidal effect, S (Glysine max) ([10]; application amount 0.8 g/a): 0 (Growth control rates of less than 5% (substantially no effect)); herbicidal effect, W (Triticum vulgare) ([11]; application amount 0.4 g/a): 2 (Growth control rates of 20 to 40%); herbicidal effect, W (Triticum vulgare) ([11]; application amount 0.8 g/a): 3 (Growth control rates of 40 to 70%)
2 | C#CCN1C(=O)COc2ccc(N3C(=O)CC(C(F)(F)F)CC3=O)cc21 [1-24] | 5 (Growth control,rates of more than 90% (almost completely withered)) | 5 (Growth control,rates of more than 90% (almost completely withered)) | 5 (Growth control,rates of more than 90% (almost completely withered)) | 5 (Growth control,rates of more than 90% (almost completely withered)) | 5 (Growth control,rates of more than 90% (almost completely withered)) | 5 (Growth control,rates of more than 90% (almost completely withered)) | 0 (Growth control rates of less than 5% (substantially no effect)) | 2 (Growth control rates of 20 to 40%) | 4 (Growth control rates of 70 to 90%) | 0 (Growth control rates of less than 5% (substantially no effect)) | 1 (Growth control rates of 5 to 20%) | 3 (Growth control rates of 40 to 70%) | 5 (Growth control,rates of more than 90% (almost completely withered)) | 5 (Growth control,rates of more than 90% (almost completely withered)) | 5 (Growth control,rates of more than 90% (almost completely withered)) | 5 (Growth control,rates of more than 90% (almost completely withered)) | 5 (Growth control,rates of more than 90% (almost completely withered)) | 5 (Growth control,rates of more than 90% (almost completely withered)) | 1 (Growth control rates of 5 to 20%) | 4 (Growth control rates of 70 to 90%) | herbicidal effect, M (Digitaria adscendens) ([7]; application amount 0.8 g/a): 5 (Growth control,rates of more than 90% (almost completely withered)); herbicidal effect, M (Digitaria adscendens) ([7]; application amount 1.6 g/a): 5 (Growth control,rates of more than 90% (almost completely withered)); herbicidal effect, R (Oryza sativa) ([8]; application amount 0.4 g/a): 1 (Growth control rates of 5 to 20%); herbicidal effect, R (Oryza sativa) ([8]; application amount 0.8 g/a): 4 (Growth control rates of 70 to 90%); herbicidal effect, I (Rorippa indica) ([9]; application amount 0.4 g/a): 5 (Growth control,rates of more than 90% (almost completely withered)); herbicidal effect, I (Rorippa indica) ([9]; application amount 0.8 g/a): 5 (Growth control,rates of more than 90% (almost completely withered)); herbicidal effect, S (Glysine max) ([10]; application amount 0.4 g/a): 0 (Growth control rates of less than 5% (substantially no effect)); herbicidal effect, S (Glysine max) ([10]; application amount 0.8 g/a): 0 (Growth control rates of less than 5% (substantially no effect)); herbicidal effect, W (Triticum vulgare) ([11]; application amount 0.4 g/a): 0 (Growth control rates of less than 5% (substantially no effect)); herbicidal effect, W (Triticum vulgare) ([11]; application amount 0.8 g/a): 1 (Growth control rates of 5 to 20%)
3 | CCOC(=O)c1cc(N2C(=O)CC(c3ccccc3)CC2=O)c(F)cc1Cl [1-29] | – | – | 5 (Growth control,rates of more than 90% (almost completely withered)) | – | – | 5 (Growth control,rates of more than 90% (almost completely withered)) | – | – | 0 (Growth control rates of less than 5% (substantially no effect)) | – | – | 0 (Growth control rates of less than 5% (substantially no effect)) | – | – | 5 (Growth control,rates of more than 90% (almost completely withered)) | – | 0 (Growth control rates of less than 5% (substantially no effect)) | 5 (Growth control,rates of more than 90% (almost completely withered)) | 0 (Growth control rates of less than 5% (substantially no effect)) | 0 (Growth control rates of less than 5% (substantially no effect)) | herbicidal effect, K (Cyperus microiria) ([1]; application amount 3.2 g/a): 5 (Growth control,rates of more than 90% (almost completely withered)); herbicidal effect, K (Cyperus microiria) ([1]; application amount 6.3 g/a): 5 (Growth control,rates of more than 90% (almost completely withered)); herbicidal effect, H (Solanum nigrum L.) ([3]; application amount 3.2 g/a): 5 (Growth control,rates of more than 90% (almost completely withered)); herbicidal effect, H (Solanum nigrum L.) ([3]; application amount 6.3 g/a): 5 (Growth control,rates of more than 90% (almost completely withered)); herbicidal effect, T (Zea mays) ([4]; application amount 3.2 g/a): 0 (Growth control rates of less than 5% (substantially no effect)); herbicidal effect, T (Zea mays) ([4]; application amount 6.3 g/a): 0 (Growth control rates of less than 5% (substantially no effect)); herbicidal effect, C (Gossypium herbaceum) ([5]; application amount 3.2 g/a): 0 (Growth control rates of less than 5% (substantially no effect)); herbicidal effect, C (Gossypium herbaceum) ([5]; application amount 6.3 g/a): 0 (Growth control rates of less than 5% (substantially no effect)); herbicidal effect, D (Galinsoga ciliat) ([6]; application amount 3.2 g/a): 5 (Growth control,rates of more than 90% (almost completely withered)); herbicidal effect, D (Galinsoga ciliat) ([6]; application amount 6.3 g/a): 5 (Growth control,rates of more than 90% (almost completely withered)); herbicidal effect, R (Oryza sativa) ([8]; application amount 3.2 g/a): 0 (Growth control rates of less than 5% (substantially no effect)); herbicidal effect, R (Oryza sativa) ([8]; application amount 6.3 g/a): 0 (Growth control rates of less than 5% (substantially no effect)); herbicidal effect, I (Rorippa indica) ([9]; application amount 3.2 g/a): 5 (Growth control,rates of more than 90% (almost completely withered)); herbicidal effect, I (Rorippa indica) ([9]; application amount 6.3 g/a): 5 (Growth control,rates of more than 90% (almost completely withered)); herbicidal effect, S (Glysine max) ([10]; application amount 3.2 g/a): 0 (Growth control rates of less than 5% (substantially no effect)); herbicidal effect, S (Glysine max) ([10]; application amount 6.3 g/a): 0 (Growth control rates of less than 5% (substantially no effect)); herbicidal effect, W (Triticum vulgare) ([11]; application amount 3.2 g/a): 0 (Growth control rates of less than 5% (substantially no effect)); herbicidal effect, W (Triticum vulgare) ([11]; application amount 6.3 g/a): 0 (Growth control rates of less than 5% (substantially no effect))
